Measured values from ChEMBL document CHEMBL5303573, “Mapping human microbiome drug metabolism by gut bacteria and their genes” (Nature, 2019).

How the values were obtained:
[1] = The drug is tested on Eubacterium ventriosum strain: ATCC27560 for biotransformation. The drug concentrations were measured before and after a 12-h incubation by liquid-chromatography-coupled mass spectrometry (LC–MS); type: ADME; parameters: dose 2 uM, timepoint 0 vs 12 hours; conditions: 2 µM
[2] = The drug is tested on Bacteroides caccae strain: ATCC43185 for biotransformation. The drug concentrations were measured before and after a 12-h incubation by liquid-chromatography-coupled mass spectrometry (LC–MS); conditions: 2 µM
[3] = The drug is tested on Bacteroides pectinophilus strain: ATCC43243 for biotransformation. The drug concentrations were measured before and after a 12-h incubation by liquid-chromatography-coupled mass spectrometry (LC–MS); conditions: 2 µM
[4] = enterocloster bolteae, 12 h, 2 µM
Description: The drug is tested on Clostridium bolteae strain: ATCCBAA-613 for biotransformation. The drug concentrations were measured before and after a 12-h incubation by liquid-chromatography-coupled mass spectrometry (LC–MS)

[5] = bacteroides thetaiotaomicron, 12 h, 2 µM
Description: The drug is tested on Bacteroides thetaiotaomicron strain: 7330 for biotransformation. The drug concentrations were measured before and after a 12-h incubation by liquid-chromatography-coupled mass spectrometry (LC–MS)

[6] = The drug is tested on Providencia rettgeri strain: DSM1131 for biotransformation. The drug concentrations were measured before and after a 12-h incubation by liquid-chromatography-coupled mass spectrometry (LC–MS); type: ADME; parameters: dose 2 uM, timepoint 0 vs 12 hours; conditions: 2 µM
[7] = The drug is tested on Clostridium ramosum strain: DSM1402 for biotransformation. The drug concentrations were measured before and after a 12-h incubation by liquid-chromatography-coupled mass spectrometry (LC–MS); conditions: thomasclavelia ramosa, 2 µM
[8] = The drug is tested on Escherichia coli strain: BW25113 for biotransformation. The drug concentrations were measured before and after a 12-h incubation by liquid-chromatography-coupled mass spectrometry (LC–MS); conditions: 2 µM
[9] = bacteroides fragilis, 12 h, 2 µM
Description: The drug is tested on Bacteroides fragilis strain: 3397 (T10) for biotransformation. The drug concentrations were measured before and after a 12-h incubation by liquid-chromatography-coupled mass spectrometry (LC–MS)

[10] = bacteroides intestinalis, 12 h, 2 µM
Description: The drug is tested on Bacteroides intestinalis strain: DSM17393 for biotransformation. The drug concentrations were measured before and after a 12-h incubation by liquid-chromatography-coupled mass spectrometry (LC–MS)

[11] = The drug is tested on Edwardsiella tarda strain: ATCC23685 for biotransformation. The drug concentrations were measured before and after a 12-h incubation by liquid-chromatography-coupled mass spectrometry (LC–MS); conditions: 2 µM
[12] = The drug is tested on Bacteroides fragilis strain: ATCC43859 for biotransformation. The drug concentrations were measured before and after a 12-h incubation by liquid-chromatography-coupled mass spectrometry (LC–MS); conditions: 2 µM
[13] = The drug is tested on Clostridium symbiosum strain: ATCC14940 for biotransformation. The drug concentrations were measured before and after a 12-h incubation by liquid-chromatography-coupled mass spectrometry (LC–MS); conditions: 2 µM
[14] = The drug is tested on Ruminococcus gnavus strain: ATCC29149 for biotransformation. The drug concentrations were measured before and after a 12-h incubation by liquid-chromatography-coupled mass spectrometry (LC–MS); conditions: mediterraneibacter gnavus, 2 µM
[15] = parabacteroides johnsonii, 12 h, 2 µM
Description: The drug is tested on Parabacteroides johnsonii strain: DSM18315 for biotransformation. The drug concentrations were measured before and after a 12-h incubation by liquid-chromatography-coupled mass spectrometry (LC–MS)

[16] = The drug is tested on Coprococcus comes strain: ATCC27758 for biotransformation. The drug concentrations were measured before and after a 12-h incubation by liquid-chromatography-coupled mass spectrometry (LC–MS); type: ADME; parameters: dose 2 uM, timepoint 0 vs 12 hours; conditions: 2 µM
[17] = The drug is tested on Alistipes indistinctus strain: DSM22520 for biotransformation. The drug concentrations were measured before and after a 12-h incubation by liquid-chromatography-coupled mass spectrometry (LC–MS); conditions: 2 µM
[18] = The drug is tested on Ruminococcus lactaris strain: ATCC29176 for biotransformation. The drug concentrations were measured before and after a 12-h incubation by liquid-chromatography-coupled mass spectrometry (LC–MS); conditions: 2 µM

Bacterial Biotransformation [1] | Bacterial Biotransformation [2] | Bacterial Biotransformation [3] | Bacterial Biotransformation [4] | Bacterial Biotransformation [5] | Bacterial Biotransformation [6] | Bacterial Biotransformation [7] | Bacterial Biotransformation [8] | Bacterial Biotransformation [9] | Bacterial Biotransformation [10] | Bacterial Biotransformation [11] | Bacterial Biotransformation [12] | Bacterial Biotransformation [13] | Bacterial Biotransformation [14] | Bacterial Biotransformation [15] | Bacterial Biotransformation [16] | Bacterial Biotransformation [17] | Bacterial Biotransformation [18] | Structure (SMILES)
Compound NOT metabolized | Compound NOT metabolized | Compound NOT metabolized | Compound NOT metabolized | Compound NOT metabolized | Compound NOT metabolized | Compound NOT metabolized | Compound NOT metabolized | Compound NOT metabolized | Compound NOT metabolized | Compound NOT metabolized | Compound NOT metabolized | Compound NOT metabolized | Compound NOT metabolized | Compound NOT metabolized | Compound NOT metabolized |  |  | CN1CCc2c(c3ccccc3n2Cc2ccccc2)C1.CN1CCc2c(c3ccccc3n2Cc2ccccc2)C1.O=S(=O)(O)c1cccc2c(S(=O)(=O)O)cccc12
Compound NOT metabolized | Compound metabolized | Compound NOT metabolized | Compound metabolized | Compound metabolized | Compound metabolized |  | Compound metabolized | Compound metabolized | Compound metabolized | Compound NOT metabolized | Compound metabolized | Compound metabolized | Compound NOT metabolized | Compound metabolized | Compound NOT metabolized | Compound metabolized | Compound NOT metabolized | CC(=O)OCC(=O)[C@@]1(OC(C)=O)[C@@H](C)C[C@H]2[C@@H]3C[C@H](F)C4=CC(=O)C=C[C@]4(C)[C@@]3(F)[C@@H](O)C[C@@]21C [DIFLORASONE DIACETATE]
Compound NOT metabolized | Compound metabolized | Compound NOT metabolized | Compound NOT metabolized | Compound metabolized |  |  | Compound NOT metabolized |  | Compound metabolized | Compound NOT metabolized | Compound NOT metabolized | Compound metabolized | Compound NOT metabolized | Compound metabolized | Compound metabolized | Compound metabolized | Compound metabolized | COc1ccc([C@@H]2Sc3ccccc3N(CCN(C)C)C(=O)[C@@H]2OC(C)=O)cc1 [DILTIAZEM]
Compound NOT metabolized | Compound NOT metabolized | Compound NOT metabolized | Compound NOT metabolized | Compound NOT metabolized | Compound NOT metabolized | Compound NOT metabolized | Compound NOT metabolized | Compound NOT metabolized | Compound NOT metabolized | Compound NOT metabolized | Compound NOT metabolized | Compound NOT metabolized | Compound NOT metabolized |  | Compound NOT metabolized | Compound NOT metabolized | Compound NOT metabolized | O=C(Nc1ccccc1)OCC(CN1CCCCC1)OC(=O)Nc1ccccc1 (stereo unspecified) [DIPERODON]
Compound NOT metabolized | Compound NOT metabolized |  |  | Compound NOT metabolized | Compound NOT metabolized |  | Compound NOT metabolized | Compound NOT metabolized | Compound NOT metabolized | Compound NOT metabolized |  | Compound NOT metabolized | Compound NOT metabolized | Compound metabolized | Compound NOT metabolized | Compound NOT metabolized |  | OCCN(CCO)c1nc(N2CCCCC2)c2nc(N(CCO)CCO)nc(N3CCCCC3)c2n1 [DIPYRIDAMOLE]
 | Compound NOT metabolized | Compound NOT metabolized | Compound NOT metabolized | Compound NOT metabolized | Compound NOT metabolized |  |  | Compound NOT metabolized | Compound NOT metabolized | Compound NOT metabolized | Compound NOT metabolized | Compound NOT metabolized | Compound NOT metabolized | Compound NOT metabolized |  | Compound NOT metabolized |  | CC(C)(C(=O)O)c1ccc(C(O)CCCN2CCC(C(O)(c3ccccc3)c3ccccc3)CC2)cc1 (stereo unspecified) [FEXOFENADINE]
 | Compound NOT metabolized | Compound NOT metabolized | Compound NOT metabolized | Compound NOT metabolized | Compound NOT metabolized | Compound NOT metabolized |  | Compound NOT metabolized | Compound NOT metabolized | Compound NOT metabolized |  |  | Compound NOT metabolized | Compound NOT metabolized | Compound NOT metabolized | Compound NOT metabolized | Compound NOT metabolized | CC1Cc2ccccc2N1NC(=O)c1ccc(Cl)c(S(N)(=O)=O)c1 (stereo unspecified) [INDAPAMIDE]
Compound NOT metabolized | Compound NOT metabolized | Compound NOT metabolized | Compound NOT metabolized | Compound NOT metabolized |  | Compound NOT metabolized | Compound NOT metabolized | Compound NOT metabolized | Compound NOT metabolized | Compound NOT metabolized |  | Compound NOT metabolized | Compound NOT metabolized |  | Compound NOT metabolized |  | Compound NOT metabolized | CN1CCN2c3ccccc3Cc3ccccc3C2C1 (stereo unspecified) [MIANSERIN]
Compound NOT metabolized | Compound NOT metabolized | Compound NOT metabolized | Compound NOT metabolized | Compound NOT metabolized | Compound NOT metabolized |  | Compound NOT metabolized | Compound NOT metabolized | Compound NOT metabolized | Compound NOT metabolized | Compound metabolized | Compound NOT metabolized | Compound NOT metabolized |  | Compound NOT metabolized |  | Compound NOT metabolized | COc1ccc2cc([C@H](C)C(=O)O)ccc2c1 [NAPROXEN]

Structure (SMILES) | Bacterial Biotransformation [1] | Bacterial Biotransformation [2] | Bacterial Biotransformation [3] | Bacterial Biotransformation [4] | Bacterial Biotransformation [5] | Bacterial Biotransformation [6] | Bacterial Biotransformation [7] | Bacterial Biotransformation [8] | Bacterial Biotransformation [9] | Bacterial Biotransformation [10] | Bacterial Biotransformation [11] | Bacterial Biotransformation [12] | Bacterial Biotransformation [13] | Bacterial Biotransformation [14] | Bacterial Biotransformation [15] | Bacterial Biotransformation [16] | Bacterial Biotransformation [17] | Bacterial Biotransformation [18]
CN(C)C(=O)Oc1cccc([N+](C)(C)C)c1.[Br-] [NEOSTIGMINE BROMIDE] | Compound NOT metabolized | Compound NOT metabolized | Compound NOT metabolized | Compound NOT metabolized | Compound metabolized | Compound NOT metabolized | Compound NOT metabolized | Compound NOT metabolized | Compound metabolized | Compound NOT metabolized | Compound NOT metabolized |  | Compound NOT metabolized | Compound NOT metabolized | Compound NOT metabolized | Compound NOT metabolized | Compound NOT metabolized | Compound NOT metabolized
